Test results: patent US20220064238A1, “Methods And Compositions For Modifying Transcription Factor Activity by Targeting The Human Mediator Complex Using Cell Penetrating Memetic Peptides And Methods of Treating Cancer Using The Same” (The Regents of the University of Colorado, a body corporate, priority 2020, published 2022)
pIC50: −log10 of the molar value. Bridge positions count the residues as written; N and C are the ends. Square brackets hold non-standard residues; d marks the D form. Peptide text beside a SMILES is read from it. PEG6 = NCCOCCOCCOCCOCCOCCOCCC(=O)O; R8 = C=CCCCCCC[C@@](C)(N)C(=O)O; S5 = C=CCCC[C@](C)(N)C(=O)O

System: Gal4-VP16 / Mediator
Assay: In vitro transcription on chromatin templates activated by Gal4-VP16
Type: biochemical, human
Details: read-out: IC50, transcription in the presence of Gal4-VP16
Text: Finally, we assessed whether the bivalent peptide would selectively block p53-dependent transcription compared with VP16, a viral activation domain. Whereas p53 and VP16 both interact with Mediator, they do so through different subunits (MED17 and MED25, respectively).
In vitro transcription: Chromatinized templates and in vitro transcription assays were generated and completed as described (Knuesel et al., 2009). Briefly, each activator (GAL4-p53AD or GAL4-VP16AD) was titrated to yield maximum transcription. While the activator bound the template, the general transcription factors (GTFs) were mixed in 0.1 M HEMG (10 mM HEPES pH 7.6, 100 mM KCl, 0.1 mM EDTA, 10% glycerol, 5.5 mM MgCl2) to give approximate final concentrations of 40 nM TFIIA, 10 nM IIB, 0.8 nM TFIID, 10 nM TFIIE, 10 nM TFIIF, 0.5 nM TFIIH and 2 nM pol II. A non-limiting amount of Mediator was then diluted in a separate salts mix (10 mM HEPES pH 7.6, 100 mM KCl, 2.5% PVA, 2.5% PEG, 7.5 mM MgCl2), along with 400 U of RNAseOUT, about 300 ng PC4 and about 300 ng HMGB1. On ice, the desired concentration of peptide was then added to the Mediator mix, followed by the GTF mix at a 5:11 ratio. The GTFs, Mediator and peptide were then incubated at least 5 minutes at 30° C. […]

Structure (SMILES): CC[C@H](C)[C@H](NC(=O)[C@H](CC(=O)O)NC(=O)[C@H](CC(=O)O)NC(=O)[C@@H]1CCCN1C(=O)[C@H](CO)NC(=O)[C@H](CC(C)C)NC(=O)CCOCCOCCOCCOCCOCCOCCNC(=O)[C@H](CCCNC(=N)N)NC(=O)[C@H](CCCNC(=N)N)NC(=O)[C@]1(C)CCCC=CCCCCCC[C@@](C)(NC(=O)[C@H](Cc2ccccc2)NC(=O)[C@H](CCCNC(=N)N)NC(=O)[C@H](CCC(=O)O)NC(=O)[C@H](CCC(N)=O)NC(=O)[C@H](CO)NC(=O)[C@H](CCCNC(=N)N)NC(C)=O)C(=O)N[C@@H](CC(=O)O)C(=O)N[C@@H](CC(C)C)C(=O)N[C@@H](Cc2c[nH]c3ccccc23)C(=O)N[C@@H](CCCCN)C(=O)N[C@@H](CCCNC(=N)N)C(=O)N[C@@H](CC(C)C)C(=O)N1)C(=O)N[C@@H](CCC(=O)O)C(=O)N[C@@H](CCC(N)=O)C(=O)N[C@@H](Cc1c[nH]c2ccccc12)C(=O)N[C@@H](Cc1ccccc1)C(=O)N[C@H](C(=O)N[C@@H](CCC(=O)O)C(=O)N[C@@H](CC(=O)O)C(N)=O)[C@@H](C)O [bivalent peptide] (Ac-RSQERF[R8]DLWKRL[S5]RR[PEG6]LSPDDIEQWFTED-NH2; staple 7-14; N-terminus assumed)
- pIC50: 6.37
